pIC50: −log10 of the molar value.
Key:
[1] = target: T1, purified tubulin from pig brains (Sus scrofa, UniProt P02550+P02554); experiment: Inhibition of polymerization of tubulin (turbidimetry); type: biochemical; settings: pig brain tubulin, turbidimetry at 350 nm
T1 construct: from pig brains, where it forms 20-25% of the soluble proteins; from tissue; host or cells: pig brain
Experimental: Tests relating to the inhibition of polymerization of tubulin were carried out on compounds which had the best cytotoxic activities. These tests were carried out on purified tubulin by the Shelanski method (Shelanski, M. C.; Gaskin, F.; Cantor, C. R. Proc. Natl. Acad. Sci. USA, 1973, 70, 765-768) from pig brains, where it forms 20-25% of the soluble proteins. Purification method is based on temperature-dependent assembling-disassembling cycles. Polymerization of tubulin was tracked with turbidimetry according to the Gaskin method (Gaskin, F.; Cantor, C. R.; Shelanski, M. L. J. Bio. Mol. 1974, 89, 737) at a wavelength of 350 nm. The different samples were dissolved in DMSO and incubated for 10 minutes at 37° C. and then for 5 minutes at 0° C.
The CA-4 compound and DMSO were taken as references.
The tests have shown for these compounds an activity inhibiting polymerization of tubulin similar to the one of the reference compound CA-4 (of the order of only one micromolar concentration to a few tens of micromolar concentrations).

MDA-MB231 cells = experiment: Study of the cell cycle (flow cytometry); type: cell-based, human; settings: MDA-MB231, 24 hours, 5 nM
Experimental: (§1) The K562 and MDA-MB231 cells are sown in 6-well culture plates with 300,000 cells per well in their respective media as described above. After 24 hours of culture, the compound (I-1) was added in each of the wells at different concentrations. After 24 hours of incubation, the cells are collected individually in 15 mL tubes and then centrifuged. The cells are then washed twice in cold PBS and then re-suspended in 1 mL of PBS, fixed by adding 2 mL of cold absolute ethanol and placed at 4° C. for 1 hour. After centrifugation, the cells are washed twice in PBS and then the cell pellet is taken up in 100 μL of Triton X100 at 1%. After 30 minutes of incubation at room temperature, 50 μL of RNase A boiled beforehand (1 mg/mL) and 500 μL of propidium iodide (50 μg/mL) are added into each tube and incubated in the dark at room temperature for 30 minutes. The distribution of the number of cells in each of the phases of the cell cycle is then determined by flow cytometry with a cytometer of the FC500 type (Beckman-Coulter, France).
(§2) This effect is significant after 24 hours of exposure of the cells to the compound (I-1) used at a concentration of 5 nM (FIG. 1).

K562 cells [2] = experiment: Study of the cell cycle (flow cytometry); type: cell-based, human; settings: K562, 24 hours, 5 nM
Experimental: as §1, §2

MDA-MB 231 cells = experiment: Study of apoptosis (caspase-3/7 activity); type: cell-based, human; settings: MDA-MB 231, 24 hours
Experimental: (§3) In order to specify whether the compound (I-1) causes cell death by apoptosis, the intracellular enzymatic activity of caspases 3 and 7 was evaluated in cultures of K562, HCT116 and MDA-MB 231 cells exposed for 24 hours to the action of the compound (I-1).
(§4) Apoptosis is measured by using the kit “Apo-one homogeneous caspase-3/7 assay” (Promega Co., WI, USA) by following the recommendations of the manufacturer. Briefly, the cells are sown in 96-well culture plates with 50,000 cells per well in 100 μL of culture medium. After 24 hours of incubation, the medium is replaced with 100 μL of culture medium containing different concentrations of the compound […] or 0.1% DMSO (negative control). After 24 hours of treatment, 100 μL of reagent containing the substrate of the caspase and the buffer of the reaction are added into each well. After 1 hour of incubation, the fluorescence emitted by the cell is measured at 527 nm with a microplate reader of the Victor type (Perkin-Elmer, USA).

K562 cells [3] = experiment: Study of apoptosis (caspase-3/7 activity); type: cell-based, human; settings: K562, 24 hours
Experimental: as §3, §4

HCT116 cells = experiment: Study of apoptosis (caspase-3/7 activity); type: cell-based, human; settings: HCT116, 24 hours
Experimental: as §3, §4

[4] = system: human colon tumors LS174T xenografted in Nude mice; experiment: Antivascular activity in vivo (MRI, Dotarem entry into tumors); settings: LS174T xenograft
Experimental: The antivascular effect of the molecule (I-1) was tested on mice bearing human tumors by comparison with the positive control DMXAA, according to the procedure described by Beauregard et al. (NMR Biomed., 2002, 15:99-105).
Thus, CD-1 Nude female mice were xenografted by subcutaneous injection of human colon tumoral cells (LS174T). The mice bearing tumors were then treated with 0.9% NaCl (carrier, 10 mL/kg), DMXAA (27.5 mg/kg) via an intraperitoneal route (IP) or the molecule (I-1) (45 mg/kg) via an intravenous route (IV). Three hours after administration, the mice were treated with the Dotarem® contrast agent intravenously (IV). The penetration of the contrast agent into the tumors was followed in real time by magnetic resonance imaging (MRI) and is expressed by an enhancement of the intensity of the signal in the tumors. Densitometric analysis of the acquired images allows determination of the maximum enhancement (Rmax) as well as the slope P0 corresponding to the entry rate of Dotarem® into the tumors.

[5] = 3 hours after administration, DMXAA 27.5 mg/kg IP, (I-1) 45 mg/kg IV

T1 sequence (P02554 whole entry): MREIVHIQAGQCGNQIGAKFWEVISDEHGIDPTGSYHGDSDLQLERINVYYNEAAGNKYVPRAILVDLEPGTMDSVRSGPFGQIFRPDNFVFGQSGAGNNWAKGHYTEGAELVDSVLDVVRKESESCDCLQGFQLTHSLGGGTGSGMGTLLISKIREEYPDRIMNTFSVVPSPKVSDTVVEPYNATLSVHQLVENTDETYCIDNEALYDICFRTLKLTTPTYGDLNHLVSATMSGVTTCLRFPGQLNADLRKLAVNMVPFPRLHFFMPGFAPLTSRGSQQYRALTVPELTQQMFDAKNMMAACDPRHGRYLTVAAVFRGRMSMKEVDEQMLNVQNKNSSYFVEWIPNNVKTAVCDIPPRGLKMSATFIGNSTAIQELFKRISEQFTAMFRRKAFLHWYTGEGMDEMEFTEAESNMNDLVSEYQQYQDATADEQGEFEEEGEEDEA
T1 sequence (P02550 whole entry): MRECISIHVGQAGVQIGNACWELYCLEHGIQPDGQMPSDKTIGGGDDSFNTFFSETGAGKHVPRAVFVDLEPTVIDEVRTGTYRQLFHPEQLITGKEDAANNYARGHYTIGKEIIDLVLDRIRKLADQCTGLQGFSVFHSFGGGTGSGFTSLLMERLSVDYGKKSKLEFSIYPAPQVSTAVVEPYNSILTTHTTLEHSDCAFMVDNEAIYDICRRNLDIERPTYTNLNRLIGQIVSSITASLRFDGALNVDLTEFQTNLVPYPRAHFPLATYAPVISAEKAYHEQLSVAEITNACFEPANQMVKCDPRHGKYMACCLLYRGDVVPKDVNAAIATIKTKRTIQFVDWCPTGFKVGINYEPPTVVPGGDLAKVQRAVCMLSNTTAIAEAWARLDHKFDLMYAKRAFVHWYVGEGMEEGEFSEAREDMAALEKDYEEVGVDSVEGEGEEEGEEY

SMILES: C=C(c1ccc(OC)c(O)c1)c1cc(OC)c(OC)c(OC)c1 [(I-1)]
- pIC50 [1]: 5.66
- Effect on cell cycle (MDA-MB231 cells): blocks cell division in the G2/M phase
- Effect on cell cycle (K562 cells [2]): blocks cell division in the G2/M phase
- Induction of apoptosis (caspases 3 and 7) (MDA-MB 231 cells): strong induction of apoptosis
- Induction of apoptosis (caspases 3 and 7) (K562 cells [3]): strong induction of apoptosis
- Induction of apoptosis (caspases 3 and 7) (HCT116 cells): strong induction of apoptosis
- Antivascular effect in vivo ([4]; 45 mg/kg IV): has an antivascular effect
- Average of P0 [4, 5]: 1.53±0.82 arbitrary unit
- Average of Rmax [4, 5]: 67.56±33.10 % of the NaCl control

— US8273768B2, “Iso CA-4 and analogues thereof as potent cytotoxic agents inhibiting tubuline polymerization” (Centre National de la Recherche Scientifique (CNRS), priority 2007, dated 2012)
